The conditions of series [1]: administered orally to patients at about 300-600 mg/day; cited from earlier work.
For series [2] the following is noted: oral administration to rats; cited from earlier work.
Series [3] concerns the target T1, β1-35 peptide (Homo sapiens, UniProt P05067).
T1 construct: made in house; host or cells: chemical solid-phase synthesis (Fmoc)
In words: β-amyloid protein aggregation inhibition by SDS-PAGE (Example 1). In kind it is biochemical. Particulars: drug agent 100 µg/ml; β1-35 peptide 2 mg/ml; room temperature; control and methanol solutions aggregated by the 7th day. An excerpt:
When synthesized β-amyloid protein is subjected to SDS-PAGE, a 3-4 kDa band due to the peptide monomer is observed. However, when the protein begins to aggregate, this monomer band becomes thinner and a smear is observed at the high molecular end (Tomiyama, et al. 1994, J. Biol. Chem. 269, 10205-10208). The inhibitory activity of a drug agent against β-amyloid protein aggregation may be determined by measuring the aggregation period of β-amyloid in admixture with the drug agent based on the decrease in peptide monomer or appearance of smearing observed with SDS-PAGE.
Specifically, 10 µl of solution is taken from a reagent solution containing β-amyloid protein and a drug agent, an equivalent of a sample buffer for electrophoresis (20 mM Tris-HCl buffer, pH 6.8, 40% glycerin, 2% SDS, 2% β-mercaptoethanol) is added thereto, and the mixture is boiled at 100°C for 5 minutes. Next, 10 µl of the solution is placed on a 15-25% polyacrylamide gradient gel for electrophoresis in a Tris-glycine buffered system. After completion of the electrophoresis, the gel is stained with 0.2% Coomassie brilliant blue solution and the amount of peptide monomer (band thickness) and presence of smearing is observed. […]

T1 sequence (P05067 672-706): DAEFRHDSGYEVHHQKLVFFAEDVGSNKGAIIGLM

On to `CO[C@H]1/C=C/O[C@@]2(C)Oc3c(C)c(O)c4c(O)c(c(/C=N/N5CCN(C)CC5)c(O)c4c3C2=O)NC(=O)/C(C)=C\C=C\[C@H](C)[C@H](O)[C@@H](C)[C@@H](O)[C@@H](C)[C@H](OC(C)=O)[C@@H]1C` [rifampicin, Rifampicin], for which the maximum blood concentration result in series [1] is given as “about 10 µg/ml”. Moreover, the LD₅₀ value in series [2] is 1720 mg/kg.
Take `COC1C=COC2(C)Oc3c(C)c(O)c4c(O)c(cc(OCC(=O)O)c4c3C2=O)NC(=O)C(C)=CC=CC(C)C(O)C(C)C(O)C(C)C(OC(C)=O)C1C` (stereo not shown) [rifamycin B, Rifamycin B]: the “reduction in peptide monomer and appearance of smear (β1-35 peptide aggregation)” value in series [3] is reported as “no reduction in peptide monomer or smearing was observed up to the 14th day after dissolution”.
The same measure, in the same setting: as for `CO[C@H]1/C=C/O[C@@]2(C)Oc3c(C)c(O)c4c(O)c(cc(O)c4c3C2=O)NC(=O)/C(C)=C\C=C\[C@H](C)[C@H](O)[C@@H](C)[C@@H](O)[C@@H](C)[C@H](OC(C)=O)[C@@H]1C` [rifamycin SV, Rifamycin SV], the entry is “no reduction in peptide monomer or smearing was observed up to the 14th day after dissolution”.

These data come from patent publication EP0675126A1, “AMYLOID BETA-PROTEIN AGGLUTINATION AND/OR DEPOSITION INHIBITOR” (TEIJIN LIMITED, priority 1993, dated 1995).
